{
  "source": "paper PMC2935307",
  "about": "(Biochemical pharmacology, 2010)",
  "key": {"α4β2*-nAChR [1]": {"biological_target": "T1, α4β2*-nAChR (Mus musculus, UniProt O70174+Q9ERK7)", "T1 sequence (Q9ERK7 26-501)": "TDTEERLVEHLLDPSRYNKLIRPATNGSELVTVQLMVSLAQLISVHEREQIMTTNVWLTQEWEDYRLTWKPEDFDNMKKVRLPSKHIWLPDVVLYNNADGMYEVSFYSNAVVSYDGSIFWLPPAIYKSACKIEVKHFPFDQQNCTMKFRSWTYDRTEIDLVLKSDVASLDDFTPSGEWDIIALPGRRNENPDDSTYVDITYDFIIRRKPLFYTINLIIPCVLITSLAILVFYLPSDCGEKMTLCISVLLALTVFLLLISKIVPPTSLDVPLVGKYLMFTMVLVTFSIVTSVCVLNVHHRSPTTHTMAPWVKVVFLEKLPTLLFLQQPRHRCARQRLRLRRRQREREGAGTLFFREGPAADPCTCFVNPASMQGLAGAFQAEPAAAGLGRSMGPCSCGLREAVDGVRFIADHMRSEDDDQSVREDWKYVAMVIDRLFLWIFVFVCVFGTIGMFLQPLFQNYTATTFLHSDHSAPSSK", "T1 sequence (O70174 31-629)": "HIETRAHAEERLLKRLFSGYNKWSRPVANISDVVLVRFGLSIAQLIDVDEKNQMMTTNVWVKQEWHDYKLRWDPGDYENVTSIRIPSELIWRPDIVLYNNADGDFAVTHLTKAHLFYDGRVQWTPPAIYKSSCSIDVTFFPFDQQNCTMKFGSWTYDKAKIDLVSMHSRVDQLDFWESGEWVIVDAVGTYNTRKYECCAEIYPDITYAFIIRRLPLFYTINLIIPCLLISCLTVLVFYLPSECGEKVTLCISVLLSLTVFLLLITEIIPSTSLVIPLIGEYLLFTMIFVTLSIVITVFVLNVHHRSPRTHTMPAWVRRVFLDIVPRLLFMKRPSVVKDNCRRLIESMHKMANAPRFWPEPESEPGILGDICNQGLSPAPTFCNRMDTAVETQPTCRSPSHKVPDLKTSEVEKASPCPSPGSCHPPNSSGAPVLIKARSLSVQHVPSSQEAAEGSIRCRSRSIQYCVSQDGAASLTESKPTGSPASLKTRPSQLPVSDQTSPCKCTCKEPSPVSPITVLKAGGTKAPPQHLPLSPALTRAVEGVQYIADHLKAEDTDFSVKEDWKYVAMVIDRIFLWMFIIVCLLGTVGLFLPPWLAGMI", "assay": "biochemical"}, "α4β2*-nAChR [2]": {"biological_target": "T1, α4β2*-nAChR", "details": "cited from earlier work"}, "[3]": {"biological_target": "high affinity epibatidine binding sites (Mus musculus, UniProt O70174+Q9ERK7)", "sequence (Q9ERK7 26-501)": "as the sequence (Q9ERK7 26-501) above", "sequence (O70174 31-629)": "as the sequence (O70174 31-629) above", "assay": "biochemical"}, "α4β2*-nAChR [4]": {"biological_target": "T1, α4β2*-nAChR", "assay_type": "biochemical"}, "α4β2-nAChR": {"tested_on": "α4β2-nAChR", "details": "read-out: IC50 for desensitization by nicotine; transfected cells; cited from earlier work"}, "α4β2*-nAChR [5]": {"biological_target": "T1, α4β2*-nAChR", "details": "total efflux normalized to baseline"}, "[6]": {"biological_target": "epibatidine binding sites (Mus musculus, UniProt O70174+Q9ERK7)", "sequence (Q9ERK7 26-501)": "as the sequence (Q9ERK7 26-501) above", "sequence (O70174 31-629)": "as the sequence (O70174 31-629) above"}, "[7]": {"tested_on": "α4β2*-nAChR binding sites", "details": "mice treated chronically with nicotine; cited from earlier work"}, "[8]": {"details": "IC50 for desensitization of the LS component"}, "[9]": {"details": "HS EC50 for 86Rb+ efflux from Marks et al., 1999, errors by Taylor's expansion"}, "[10]": {"details": "LS EC50 for 86Rb+ efflux from Marks et al., 1999, errors by Taylor's expansion"}, "[11]": {"details": "cortex, nicotine infusion 0.5 mg/kg/hr"}, "[12]": {"details": "cortex, nicotine infusion 4.0 mg/kg/hr"}, "[13]": {"details": "thalamus, nicotine infusion 0.5 mg/kg/hr"}, "[14]": {"details": "thalamus, nicotine infusion 4.0 mg/kg/hr"}},
  "note": "“And” between values parts separate entries of the source, which are not always exact repeats. Identical values can stand only once. Like-named read-outs stand apart in the source and are kept apart here.",
  "data": [
    {"smiles": "Clc1ccc(C2CC3CCC2N3)cn1", "note": "(racemic) [epibatidine, (±)-epibatidine]", "values": [
      {"measurement": "Ratio KI High Affinity Binding/Desensitization IC50", "setting": "α4β2*-nAChR [1]", "result": "0.065±0.022"},
      {"measurement": "Ratio: HS EC50/Desensitization IC50", "setting": "α4β2*-nAChR [1]", "result": "154±44"},
      {"measurement": "Ratio: LS EC50/Desensitization IC50", "setting": "α4β2*-nAChR [1]", "result": "6000 and 6000±870"},
      {"measurement": "IC50", "setting": "α4β2*-nAChR [1]; IC50 Desensitization", "result": "0.37 ± 0.02", "unit": "nM"},
      {"measurement": "IC50", "setting": "α4β2*-nAChR [1]; IC50 for desensitization of the HS component", "result": "0.33 ± 0.09", "unit": "nM"},
      {"measurement": "IC50", "setting": "α4β2*-nAChR [1]; [8]", "result": "0.38 ± 0.09", "unit": "nM"},
      {"measurement": "Difference in EC50 values for stimulation of HS and LS responses", "setting": "α4β2*-nAChR [2]; mouse brain synaptosomes", "result": 39, "unit": "fold"},
      {"measurement": "Ki", "setting": "[3]", "result": "0.024 ± 0.008", "unit": "nM"},
      {"measurement": "% des", "setting": "α4β2*-nAChR [4]", "result": "69.9 ± 6.1% and 64.5 ± 11.7% and 96.7 ± 8.9% and 93.8 ± 7.4%"}
    ]},
    {"smiles": "O=c1cccc2n1C[C@@H]1CNC[C@H]2C1", "note": "[cytisine]", "values": [
      {"measurement": "Ratio KI High Affinity Binding/Desensitization IC50", "setting": "α4β2*-nAChR [1]", "result": "0.119±0.011"},
      {"measurement": "Ratio: HS EC50/Desensitization IC50", "setting": "α4β2*-nAChR [1]; [9]", "result": 4.8},
      {"measurement": "IC50", "setting": "α4β2*-nAChR [1]; IC50 Desensitization", "result": "2.7 ± 0.2", "unit": "nM"},
      {"measurement": "IC50", "setting": "α4β2*-nAChR [1]; [8]", "result": "5.4 ± 1.4", "unit": "nM"},
      {"measurement": "Ratio: LS EC50/Desensitization IC50", "setting": "α4β2*-nAChR [1]; [10]", "result": "56000±23000"},
      {"measurement": "Difference in EC50 values for stimulation of HS and LS responses", "setting": "α4β2*-nAChR [2]", "result": "11,500 fold"},
      {"measurement": "Ki", "setting": "[3]", "result": "0.32 ± 0.02", "unit": "nM"}
    ]},
    {"smiles": "CNC(=O)OCC[N+](C)(C)C.[Cl-]", "note": "[methylcarbachol, methycarbachol chloride]", "values": [
      {"measurement": "Ratio: HS EC50/Desensitization IC50", "setting": "α4β2*-nAChR [1]; [9]", "result": 380},
      {"measurement": "Ratio: LS EC50/Desensitization IC50", "setting": "α4β2*-nAChR [1]; [10]", "result": "56,000"},
      {"measurement": "Ratio KI High Affinity Binding/Desensitization IC50", "setting": "α4β2*-nAChR [1]; errors by Taylor's expansion", "result": "0.156±0.042"},
      {"measurement": "Difference in EC50 values for stimulation of HS and LS responses", "setting": "α4β2*-nAChR [2]; mouse brain synaptosomes", "result": 38, "unit": "fold"},
      {"measurement": "Ki", "setting": "[3]; read-out: Ki, high affinity epibatidine binding", "result": "7.9 ± 1.7", "unit": "nM"},
      {"measurement": "% des", "setting": "α4β2*-nAChR [4]", "result": "50.9 ± 8.8% and 56.0 ± 8.1% and 94.3 ± 7.3% and 88.7 ± 6.4%"}
    ]},
    {"smiles": "CN1CCC[C@H]1c1cccnc1", "note": "[nicotine]", "values": [
      {"measurement": "IC50", "setting": "α4β2-nAChR", "result": "[…]"},
      {"measurement": "High Sensitivity 86Rb+ Efflux (maximal)", "setting": "α4β2*-nAChR [5]; [11]", "result": "2.06±0.19"},
      {"measurement": "Low Sensitivity 86Rb+ Efflux (maximal)", "setting": "α4β2*-nAChR [5]; [11]", "result": "6.80±0.50"},
      {"measurement": "High Sensitivity 86Rb+ Efflux (maximal)", "setting": "α4β2*-nAChR [5]; [12]", "result": "1.88±0.11"},
      {"measurement": "Low Sensitivity 86Rb+ Efflux (maximal)", "setting": "α4β2*-nAChR [5]; [12]", "result": "5.63±0.80"},
      {"measurement": "High Sensitivity 86Rb+ Efflux (maximal)", "setting": "α4β2*-nAChR [5]; [13]", "result": "10.19±0.99"},
      {"measurement": "Low Sensitivity 86Rb+ Efflux (maximal)", "setting": "α4β2*-nAChR [5]; [13]", "result": "13.84±2.48"},
      {"measurement": "High Sensitivity 86Rb+ Efflux (maximal)", "setting": "α4β2*-nAChR [5]; [14]", "result": "6.76±1.19"},
      {"measurement": "Low Sensitivity 86Rb+ Efflux (maximal)", "setting": "α4β2*-nAChR [5]; [14]", "result": "12.52±1.96"},
      {"measurement": "[125I]-Epibatidine Bound", "setting": "[6]; [11]", "result": "127.9±1.1", "unit": "fmol/mg protein"},
      {"measurement": "[125I]-Epibatidine Bound", "setting": "[6]; [12]", "result": "139.0±1.2", "unit": "fmol/mg protein"},
      {"measurement": "[125I]-Epibatidine Bound", "setting": "[6]; [13]", "result": "240.7±2.5", "unit": "fmol/mg protein"},
      {"measurement": "[125I]-Epibatidine Bound", "setting": "[6]; [14]", "result": "256.8±2.9", "unit": "fmol/mg protein"},
      {"measurement": "Difference in EC50 values for stimulation of HS and LS responses", "setting": "α4β2*-nAChR [2]", "result": 94, "unit": "fold"},
      {"measurement": "average dose for half-maximal upregulation of α4β2*-nAChR binding sites", "setting": "[7]", "result": 0.44, "unit": "mg/kg/h"}
    ]}
  ]
}
